# Experimental data: US6638530B1, “Benzamide formulation with histone deacetylase inhibitor activity” (Schering Aktiengesellschaft, priority 1999, dated 2003)
# Read-outs that look alike come from different tables or passages of the source.
# Experiment: Solubility of compound 1 in solvent (100 mg blended with 10 ml solvent, supernatant measured by HPLC)
# Format: physicochemical
# Details: for solubility thermodynamic: thermodynamic from solid, read-out: Compound 1 concentration; for solubility thermodynamic / Compound 1 concentration: room temperature
# Description: After thoroughly blending 100 mg of compound 1 with 10 ml each of 0.05 N hydrochloric acid solution, methanol, ethanol, propylene carbonate, polysorbate 80, polyethylene glycol 400, polyethylene glycol 300, glycerin, dimethylacetamide or propylene glycol at room temperature, the supernatant obtained by centrifugal separation of each mixture was separated off and used as a pharmaceutical solution. Comparative control samples were also prepared by thoroughly dissolving 100 mg of compound 1 with 10 ml each of purified water, sodium acetate buffer solution at pH 4.0 or sodium phosphate buffer solution at pH 6.8 at room temperature, and separating off the supernatant obtained by centrifugal separation. […] All of the samples of the present invention contained dissolved compound 1 at a concentration of 5 mg/ml or greater, which is a sufficient concentration for an injection. On the other hand, all of the comparative control samples contained dissolved compound 1 only at a concentration of 0.2 mg/ml or less, and therefore the concentration necessary for an injection could not be guaranteed.
smiles,measurement,setting,value
Nc1ccccc1NC(=O)c1ccc(CNC(=O)OCc2cccnc2)cc1 [Compound 1],concentration of dissolved compound 1,all of the comparative control samples,≤ 0.2 mg/mL
same,concentration of dissolved compound 1,all of the samples of the present invention,≥ 5 mg/mL
same,solubility thermodynamic,"purified water, solvent: water, comparative control sample",40 µg/mL
same,solubility thermodynamic,"simulated gastric fluid, solvent: 0.05 N hydrochloric acid solution",14000 µg/mL
same,solubility thermodynamic,"sodium acetate buffer solution, aqueous buffer, solvent: sodium acetate buffer, pH 4.0, comparative control sample",200 µg/mL
same,solubility thermodynamic,"sodium phosphate buffer solution, aqueous buffer, solvent: phosphate buffer, pH 6.8, comparative control sample",40 µg/mL
same,Compound 1 concentration,solvent: dimethylacetamide,>100 mg/mL
same,Compound 1 concentration,solvent: ethanol,5.4 mg/mL
same,Compound 1 concentration,solvent: glycerin,10.0 mg/mL
same,Compound 1 concentration,solvent: methanol,9.9 mg/mL
same,Compound 1 concentration,solvent: polyethylene glycol 300,69.1 mg/mL
same,Compound 1 concentration,solvent: polyethylene glycol 400,77.7 mg/mL
same,Compound 1 concentration,solvent: polysorbate 80,29.9 mg/mL
same,Compound 1 concentration,solvent: propylene carbonate,17.5 mg/mL
same,Compound 1 concentration,solvent: propyleneglycol,54.6 mg/mL
